Results taken from US7259140B2, “Heparin-binding peptides and uses thereof” (Thomas Jefferson University, priority 2003, dated 2007).
Ends that are not written are not given here.

Legend:
Format in all cases: biochemical, human
[1] = test system: anti-Factor Xa Activity of the Low Molecular Weight Heparin Lovenox ®; assay: Anti-Factor Xa assay (Stachrom Heparin kit): neutralization of Lovenox in citrate or plasma in vitro; conditions: for Lovenox ® Neutralized: Lovenox 0.7 U/ml; for anti-Factor Xa activity of LMWH neutralized: 12 μg/ml, plasma; for anti-LMWH effect in citrate compared with plasma: Table 2A
How it was run: (§1)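 Chromogenic anti-Factor Xa kit run with UFH, enoxaparin (Lovenox) or danaparoid (Orgaran) in 0.32% citrate or citrated plasma from three volunteers. Heparin/ATIII complex formed, peptide added, then Factor Xa and dye substrate; absorbance at 405 nm, inversely proportional to remaining anti-Factor Xa activity.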

[2] = test system: anti-Factor Xa Activity of Unfractionated Heparin; assay: Anti-Factor Xa assay: neutralization of unfractionated heparin in citrate or plasma in vitro; conditions: for Unfractionated Heparin Neutralized: UFH 0.7 U/ml
How it was run: as §1

[3] = test system: Lovenox ® Activity in Blood from Patients Treated with Lovenox ®; assay: Neutralizing Lovenox activity in blood from patients treated with Lovenox (anti-Factor Xa assay); conditions: for Lovenox ® Neutralized: Peptide 12 μg/ml
How it was run: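 Blood came from consenting volunteers already on Lovenox® therapy. Neutralizing peptides were tested as a dose response from 1–60 μg/ml. Each point is mean ± SD of triplicate analyses on one patient's blood sample.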

[4] = blood of Lovenox-treated Patient Number 1
[5] = blood of Lovenox-treated Patient Number 2
[6] = blood of Lovenox-treated Patient Number 3
[7] = blood of Lovenox-treated Patient Number 4
[8] = blood of Lovenox-treated Patient Number 5
[9] = blood of Lovenox-treated Patient Number 8
[10] = blood of Lovenox-treated Patient Number 9
[11] = blood of Lovenox-treated Patient Number 10
[12] = blood of Lovenox-treated Patient Number 11

ARKKAAKAARKKAAKAARKKAAKAVLVLVLVL [(ARKKAAKA)3VLVLVLVL]
rank as neutralizing agent of Lovenox [1]: most effective neutralizing agents | Lovenox ® Neutralized ([1]; 1 μg/ml Peptide, A Plasma): 0.055 ± 0.041 U/ml | Lovenox ® Neutralized ([1]; 1 μg/ml Peptide, B Plasma): 0.035 ± 0.009 U/ml | Lovenox ® Neutralized ([1]; 1 μg/ml Peptide, C Plasma): 0.058 ± 0.054 U/ml | Lovenox ® Neutralized ([1]; 1 μg/ml Peptide, Citrate): 0.082 ± 0.027 U/ml | Lovenox ® Neutralized ([1]; 6 μg/ml Peptide, A Plasma): 0.292 ± 0.047 U/ml | Lovenox ® Neutralized ([1]; 6 μg/ml Peptide, B Plasma): 0.189 ± 0.066 U/ml | Lovenox ® Neutralized ([1]; 6 μg/ml Peptide, C Plasma): 0.202 ± 0.042 U/ml | Lovenox ® Neutralized ([1]; 6 μg/ml Peptide, Citrate): 0.288 ± 0.045 U/ml | Lovenox ® Neutralized ([1]; 12 μg/ml Peptide, A Plasma): 0.441 ± 0.058 U/ml | Lovenox ® Neutralized ([1]; 12 μg/ml Peptide, B Plasma): 0.376 ± 0.001 U/ml | Lovenox ® Neutralized ([1]; 12 μg/ml Peptide, C Plasma): 0.371 ± 0.031 U/ml | Lovenox ® Neutralized ([1]; 12 μg/ml Peptide, Citrate): 0.412 ± 0.035 U/ml | anti-Factor Xa activity of LMWH neutralized [1]: about 0.4 U/ml | Lovenox ® Neutralized ([1]; 60 μg/ml Peptide, A Plasma): 0.588 ± 0.027 U/ml | Lovenox ® Neutralized ([1]; 60 μg/ml Peptide, B Plasma): 0.561 ± 0.035 U/ml | Lovenox ® Neutralized ([1]; 60 μg/ml Peptide, C Plasma): 0.532 ± 0.023 U/ml | Lovenox ® Neutralized ([1]; 60 μg/ml Peptide, Citrate): 0.441 ± 0.010 U/ml | Lovenox ® Neutralized ([1]; 120 μg/ml Peptide, A Plasma): 0.575 ± 0.057 U/ml | Lovenox ® Neutralized ([1]; 120 μg/ml Peptide, B Plasma): 0.480 ± 0.035 U/ml | Lovenox ® Neutralized ([1]; 120 μg/ml Peptide, C Plasma): 0.485 ± 0.022 U/ml | Lovenox ® Neutralized ([1]; 120 μg/ml Peptide, Citrate): 0.463 ± 0.029 U/ml | anti-LMWH effect in citrate compared with plasma [1]: neutralize the same amount of Lovenox® in citrate and plasma | Lovenox/LMWH neutralization compared with protamine ([1]; low concentrations, in the presence of plasma): more effective than protamine | effectiveness in neutralizing UFH [2]: most effective peptide | Unfractionated Heparin Neutralized ([2]; 1 μg/ml Peptide, A Plasma): 0.258 ± 0.153 U/ml | Unfractionated Heparin Neutralized ([2]; 1 μg/ml Peptide, B Plasma): 0.247 ± 0.034 U/ml | Unfractionated Heparin Neutralized ([2]; 1 μg/ml Peptide, C Plasma): 0.116 ± 0.032 U/ml | Unfractionated Heparin Neutralized ([2]; 1 μg/ml Peptide, Citrate): 0.072 ± 0.042 U/ml | Unfractionated Heparin Neutralized ([2]; 6 μg/ml Peptide, A Plasma): 0.580 ± 0.067 U/ml | Unfractionated Heparin Neutralized ([2]; 6 μg/ml Peptide, B Plasma): 0.597 ± 0.046 U/ml | Unfractionated Heparin Neutralized ([2]; 6 μg/ml Peptide, C Plasma): 0.582 ± 0.035 U/ml | Unfractionated Heparin Neutralized ([2]; 6 μg/ml Peptide, Citrate): 0.651 ± 0.084 U/ml | Unfractionated Heparin Neutralized ([2]; 12 μg/ml Peptide, A Plasma): 0.562 ± 0.050 U/ml | Unfractionated Heparin Neutralized ([2]; 12 μg/ml Peptide, B Plasma): 0.586 ± 0.053 U/ml | Unfractionated Heparin Neutralized ([2]; 12 μg/ml Peptide, C Plasma): 0.554 ± 0.049 U/ml | Unfractionated Heparin Neutralized ([2]; 12 μg/ml Peptide, Citrate): 0.505 ± 0.049 U/ml | Unfractionated Heparin Neutralized ([2]; 60 μg/ml Peptide, A Plasma): 0.535 ± 0.054 U/ml | Unfractionated Heparin Neutralized ([2]; 60 μg/ml Peptide, B Plasma): 0.444 ± 0.019 U/ml | Unfractionated Heparin Neutralized ([2]; 60 μg/ml Peptide, C Plasma): 0.539 ± 0.010 U/ml | Unfractionated Heparin Neutralized ([2]; 60 μg/ml Peptide, Citrate): 0.528 ± 0.039 U/ml | Unfractionated Heparin Neutralized ([2]; 120 μg/ml Peptide, A Plasma): 0.490 ± 0.049 U/ml | Unfractionated Heparin Neutralized ([2]; 120 μg/ml Peptide, B Plasma): 0.279 ± 0.038 U/ml | Unfractionated Heparin Neutralized ([2]; 120 μg/ml Peptide, C Plasma): 0.460 ± 0.057 U/ml | Unfractionated Heparin Neutralized ([2]; 120 μg/ml Peptide, Citrate): 0.510 ± 0.117 U/ml | effectiveness in neutralizing Lovenox in blood of patients [3]: most consistently effective | Lovenox ® Neutralized [3, 4]: 0.213 U/ml | Lovenox ® Neutralized [3, 5]: 0.252 U/ml | Lovenox ® Neutralized [3, 6]: 0.302 U/ml | Lovenox ® Neutralized [3, 7]: 0.439 U/ml | Lovenox ® Neutralized [3, 8]: 0.265 U/ml | Lovenox ® Neutralized [3, 9]: 0.268 U/ml | Lovenox ® Neutralized [3, 10]: 0.478 U/ml | Lovenox ® Neutralized [3, 11]: 0.436 U/ml | Lovenox ® Neutralized [3, 12]: 0.398 U/ml

Protamine [reference compound]
Lovenox ® Neutralized ([1]; 1 μg/ml Peptide, A Plasma): 0.038 ± 0.036 U/ml | Lovenox ® Neutralized ([1]; 1 μg/ml Peptide, B Plasma): 0.086 ± 0.004 U/ml | Lovenox ® Neutralized ([1]; 1 μg/ml Peptide, C Plasma): 0.070 ± 0.050 U/ml | Lovenox ® Neutralized ([1]; 1 μg/ml Peptide, Citrate): 0.050 ± 0.016 U/ml | Lovenox ® Neutralized ([1]; 6 μg/ml Peptide, A Plasma): 0.177 ± 0.033 U/ml | Lovenox ® Neutralized ([1]; 6 μg/ml Peptide, B Plasma): 0.200 ± 0.026 U/ml | Lovenox ® Neutralized ([1]; 6 μg/ml Peptide, C Plasma): 0.232 ± 0.065 U/ml | Lovenox ® Neutralized ([1]; 6 μg/ml Peptide, Citrate): 0.256 ± 0.060 U/ml | Lovenox ® Neutralized ([1]; 12 μg/ml Peptide, A Plasma): 0.232 ± 0.067 U/ml | Lovenox ® Neutralized ([1]; 12 μg/ml Peptide, B Plasma): 0.249 ± 0.039 U/ml | Lovenox ® Neutralized ([1]; 12 μg/ml Peptide, C Plasma): 0.285 ± 0.041 U/ml | Lovenox ® Neutralized ([1]; 12 μg/ml Peptide, Citrate): 0.591 ± 0.032 U/ml | anti-Factor Xa activity of LMWH neutralized [1]: about 0.25 U/ml | Lovenox ® Neutralized ([1]; 60 μg/ml Peptide, A Plasma): 0.515 ± 0.066 U/ml | Lovenox ® Neutralized ([1]; 60 μg/ml Peptide, B Plasma): 0.574 ± 0.022 U/ml | Lovenox ® Neutralized ([1]; 60 μg/ml Peptide, C Plasma): 0.465 ± 0.021 U/ml | Lovenox ® Neutralized ([1]; 60 μg/ml Peptide, Citrate): 0.570 ± 0.033 U/ml | Lovenox ® Neutralized ([1]; 120 μg/ml Peptide, A Plasma): 0.562 ± 0.035 U/ml | Lovenox ® Neutralized ([1]; 120 μg/ml Peptide, B Plasma): 0.592 ± 0.037 U/ml | Lovenox ® Neutralized ([1]; 120 μg/ml Peptide, C Plasma): 0.499 ± 0.16 U/ml | Lovenox ® Neutralized ([1]; 120 μg/ml Peptide, Citrate): 0.480 ± 0.058 U/ml | anti-LMWH effect in citrate compared with plasma [1]: greater anti-LMWH effect in citrate than in plasma | Unfractionated Heparin Neutralized ([2]; 1 μg/ml Peptide, A Plasma): 0.241 ± 0.026 U/ml | Unfractionated Heparin Neutralized ([2]; 1 μg/ml Peptide, B Plasma): 0.268 ± 0.028 U/ml | Unfractionated Heparin Neutralized ([2]; 1 μg/ml Peptide, C Plasma): 0.161 ± 0.030 U/ml | Unfractionated Heparin Neutralized ([2]; 1 μg/ml Peptide, Citrate): 0.126 ± 0.042 U/ml | anti-Factor Xa activity of UFH neutralized ([2]; 6 μg/ml): about 0.4 U/ml | Unfractionated Heparin Neutralized ([2]; 6 μg/ml Peptide, A Plasma): 0.442 ± 0.012 U/ml | Unfractionated Heparin Neutralized ([2]; 6 μg/ml Peptide, B Plasma): 0.423 ± 0.035 U/ml | Unfractionated Heparin Neutralized ([2]; 6 μg/ml Peptide, C Plasma): 0.425 ± 0.012 U/ml | Unfractionated Heparin Neutralized ([2]; 6 μg/ml Peptide, Citrate): 0.475 ± 0.017 U/ml | Unfractionated Heparin Neutralized ([2]; 12 μg/ml Peptide, A Plasma): 0.466 ± 0.023 U/ml | Unfractionated Heparin Neutralized ([2]; 12 μg/ml Peptide, B Plasma): 0.448 ± 0.041 U/ml | Unfractionated Heparin Neutralized ([2]; 12 μg/ml Peptide, C Plasma): 0.405 ± 0.035 U/ml | Unfractionated Heparin Neutralized ([2]; 12 μg/ml Peptide, Citrate): 0.429 ± 0.010 U/ml | Unfractionated Heparin Neutralized ([2]; 60 μg/ml Peptide, A Plasma): 0.380 ± 0.037 U/ml | Unfractionated Heparin Neutralized ([2]; 60 μg/ml Peptide, B Plasma): 0.387 ± 0.047 U/ml | Unfractionated Heparin Neutralized ([2]; 60 μg/ml Peptide, C Plasma): 0.350 ± 0.019 U/ml | Unfractionated Heparin Neutralized ([2]; 60 μg/ml Peptide, Citrate): 0.406 ± 0.023 U/ml | Unfractionated Heparin Neutralized ([2]; 120 μg/ml Peptide, A Plasma): 0.372 ± 0.024 U/ml | Unfractionated Heparin Neutralized ([2]; 120 μg/ml Peptide, B Plasma): 0.374 ± 0.034 U/ml | Unfractionated Heparin Neutralized ([2]; 120 μg/ml Peptide, C Plasma): 0.310 ± 0.024 U/ml | Unfractionated Heparin Neutralized ([2]; 120 μg/ml Peptide, Citrate): 0.374 ± 0.030 U/ml | effectiveness in neutralizing Lovenox in blood of patients [3]: neutralized Lovenox® in the blood of just one patient | Lovenox ® Neutralized [3, 4]: 0.016 U/ml | Lovenox ® Neutralized [3, 5]: 0.022 U/ml | Lovenox ® Neutralized [3, 6]: 0 U/ml | Lovenox ® Neutralized [3, 7]: 0.092 U/ml | Lovenox ® Neutralized [3, 8]: 0.013 U/ml | Lovenox ® Neutralized [3, 9]: 0.018 U/ml | Lovenox ® Neutralized [3, 10]: 0.244 U/ml | Lovenox ® Neutralized [3, 11]: 0.069 U/ml | Lovenox ® Neutralized [3, 12]: 0.021 U/ml
